Like-named read-outs stand apart in the source and are kept apart here.

The results in this text go back to paper PMC10096180, “Half-Sandwich Type Platinum-Group Metal Complexes of C-Glucosaminyl Azines: Synthesis and Antineoplastic and Antimicrobial Activities” (Molecules, 2023).

In series [1] the test system is A2780 cells. Put plainly: MTT reduction assay, early toxicity, 4 h treatment. Format: cell-based. The method in brief: (§1)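 Cells plated the day before, exposed to compounds for 4 h, then MTT 0.5 mg/mL for 40–60 min at 37 °C; reduced dye dissolved in DMSO, read at 540 nm relative to vehicle wells. IC50 by four-parameter fit; otherwise % inhibition at 100 μM.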
Background: Tetrazolium dyes change colour on reduction, which living cells bring about.

In series [2] the test system is primary human dermal fibroblasts. Put plainly: MTT reduction assay, early toxicity, 4 h treatment. Format: cell-based. The conditions noted are these: up to 100 μM. The method, boiled down:
as §1

Series [3] deals with A2780 cells. Put plainly: SRB binding assay, cytostasis, 48 h treatment. Format: cell-based. Particulars: for A2780 SRB Max Inhibition: up to 100 μM, ND = not detectable. The method in brief: (§2)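 Ovarian cancer A2780 cells and primary human dermal fibroblasts treated 48 h, TCA-fixed, SRB-stained, absorbance at 540 nm relative to vehicle. IC50 from four-parameter fit when a plateau was reached or inhibition exceeded 90%; otherwise percent inhibition at 100 μM.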
(The SRB assay estimates cell density from bound dye.)

The subject of series [4] is primary human dermal fibroblasts. Put plainly: SRB binding assay, cytostasis, 48 h treatment. Format: cell-based. Particulars: for Fibroblast SRB Max Inhibition: up to 100 μM, ND = not detectable. The method in brief: as §2
The nature of series [5]: Distribution coefficient (logD), n-octanol-PBS. Format: physicochemical. The conditions noted are these: n-octanol-PBS (pH = 7.4) system. On the procedure: The logD values of the newly synthesized complexes were determined according to a procedure described in our previous publications. page 64: Ir-7b +1.17 Rh-7b +1.41 Ru-7c +1.31 Os-7c +1.59 Ir-7c +1.40 Rh-7c +1.13 Ru-7d +1.26 Os-7d +1.42 Ir-7d +1.30 Rh-7d +1.04 Ru-7e +2.22 Os-7e +2.21 Ir-7e +1.39 Rh-7e +1.66 *logD was determined in an n-octanol-PBS (pH = 7.4) system 64 (14 pictures or pasted objects on this page, not shown here)

Series [6] concerns Enterococcus faecalis (ATCC29212). Put plainly: Broth microdilution MIC, reference strain. Format: cell-based. The conditions noted are these: 24 h, tested range 0.08–40 μM, read-out: MIC E. faecalis ATCC 29,212. The method, boiled down: (§3)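 EUCAST broth microdilution in Mueller–Hinton broth, inoculum 5.0 × 10^5 CFU/mL, compounds at 0.08–40 μM (twofold dilutions), 24 h at 37 °C. Plates read visually; MIC taken as lowest concentration giving ≥50% inhibition versus drug-free growth control.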
A general note: Broth dilution looks for growth in wells or tubes with falling amounts of substance.

Series [7] deals with Staphylococcus aureus (ATCC29213). Put plainly: Broth microdilution MIC, reference strain. Format: cell-based. Particulars: 0.08–40 μM, read-out: MIC S. aureus ATCC 29213. The method, boiled down: as §3
Series [8] has as its system vancomycin-resistant Enterococcus (VRE) clinical isolates. Put plainly: Broth microdilution MIC, clinical VRE isolates. Format: cell-based, E. faecium. The conditions noted are these: 24 h, 0.08–40 μM. The method in brief:
(§4)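 S. aureus and E. faecium clinical isolates (Debrecen, 2018–2020; MALDI-TOF-identified) tested by EUCAST broth microdilution in Mueller–Hinton broth at 5.0 × 10^5 CFU/mL across 0.08–40 μM (twofold). After 24 h at 37 °C, visually read; MIC is the lowest concentration giving ≥50% inhibition versus growth control. At least two runs in duplicate.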

The test system of series [9] is methicillin-resistant Staphylococcus aureus (MRSA) clinical isolates. Put plainly: Broth microdilution MIC, clinical MRSA isolates. Format: cell-based. The conditions noted are these: 24 h, 0.08–40 μM. The method in brief: as §4
Setting [10] is: inhibition at maximum concentration (100 μM) where no plateau, ND = not detectable.
[11] abbreviates: clinical isolate 25,051 VRE, read-out: MIC 25,051 VRE.
[12] abbreviates: clinical isolate 25,498 VRE, read-out: MIC 25,498 VRE.
Where [13] appears, read: clinical isolate 27,085 VRE, read-out: MIC 27,085 VRE.
Where [14] appears, read: clinical isolate 20,426 MRSA, read-out: MIC 20,426 MRSA.
Setting [15] is: clinical isolate 24,035 MRSA, read-out: MIC 24,035 MRSA.
Setting [16] is: clinical isolate 24,268 MRSA, read-out: MIC 24,268 MRSA.
[17] abbreviates: clinical isolate 24,272 MRSA, read-out: MIC 24,272 MRSA.
Where [18] appears, read: clinical isolate 24,328 MRSA, read-out: MIC 24,328 MRSA.
[19] abbreviates: clinical isolate 24,408 MRSA, read-out: MIC 24,408 MRSA.

For the compound `Cc1c(C)c(C)[c-](C)c1C.F[P-](F)(F)(F)(F)F.N[C@@H]1[C@@H](OC(=O)c2ccccc2)[C@H](OC(=O)c2ccccc2)[C@@H](COC(=O)c2ccccc2)O[C@H]1c1ccccn1.[Cl][Ir+2]` [Ir-7a], the half-inhibitory concentration (IC50) came out at 11.6 µM with A2780 cells [1] and 6.2 µM with A2780 cells [3]. The “A2780 MTT Max Inhibition” value in the series on A2780 cells [1] (setting [10]) is reported as more than 90%. Further, in [2], the “Fibroblast MTT Max Inhibition” value is given as 65.18%. In the series on A2780 cells [3], the “A2780 SRB Max Inhibition” value is more than 90%. Besides, the “Fibroblast SRB Max Inhibition” value in series [4] is 56.31%. In series [5], this compound gave a logD of 1.08. The MIC in series [6] is 40 µM; in series [7] (24 h), 20 µM; in [8] (setting [11]), 40 µM; in [8] (setting [12]), 40 µM; in [8] (setting [13]), 40 µM; in series [9] (setting [14]), 10 µM. Moreover, the MIC in series [9] (setting [15]) is reported as 10 µM; in [9] (setting [16]), 10 µM; in series [9] (setting [17]) it was 10 µM; in series [9] (setting [18]), 20 µM; in [9] (setting [19]), 10 µM.

In the case of `N[C@@H]1[C@@H](OC(=O)c2ccccc2)[C@H](OC(=O)c2ccccc2)[C@@H](COC(=O)c2ccccc2)O[C@H]1c1ccccn1` [Complex 7a, 2-(2′-Amino-2′-deoxy-3′,4′,6′-tri-O-benzoyl-β-D-glucopyranosyl)pyridine], in the series with A2780 cells [1] (Homo sapiens, inhibition at maximum concentration (100 μM) where no plateau, ND = not detectable, read-out: A2780 MTT Max Inhibition), the inhibition at 100 µM worked out at 18.6%. The “Fibroblast MTT Max Inhibition” value in series [2] was 27.02%. Further, the “A2780 SRB Max Inhibition” value with A2780 cells [3] is reported as 76.24%. The “Fibroblast SRB Max Inhibition” value in [4] is 26.00%. The MIC was more than 40 µM in series [6] (Enterococcus faecalis); more than 40 µM in series [7] (Staphylococcus aureus, ATCC29213, 24 h); more than 40 µM in series [8] (Enterococcus, clinical isolate 25,051 VRE, read-out: MIC 25,051 VRE); more than 40 µM in series [8] (Enterococcus, clinical isolate 25,498 VRE, read-out: MIC 25,498 VRE); more than 40 µM in [8] (Enterococcus, clinical isolate 27,085 VRE, read-out: MIC 27,085 VRE); more than 40 µM in [9] (Staphylococcus aureus, clinical isolate 20,426 MRSA, read-out: MIC 20,426 MRSA). Moreover, the MIC in series [9] (Staphylococcus aureus, clinical isolate 24,035 MRSA, read-out: MIC 24,035 MRSA) is more than 40 µM; in series [9] (Staphylococcus aureus, clinical isolate 24,268 MRSA, read-out: MIC 24,268 MRSA) it was more than 40 µM; in series [9] (Staphylococcus aureus, clinical isolate 24,272 MRSA, read-out: MIC 24,272 MRSA) it was more than 40 µM; in series [9] (Staphylococcus aureus, clinical isolate 24,328 MRSA, read-out: MIC 24,328 MRSA), more than 40 µM; in series [9] (Staphylococcus aureus, clinical isolate 24,408 MRSA, read-out: MIC 24,408 MRSA), more than 40 µM.

Consider `Cc1ccc(C(C)C)cc1.F[P-](F)(F)(F)(F)F.N[C@@H]1[C@@H](OC(=O)c2ccccc2)[C@H](OC(=O)c2ccccc2)[C@@H](COC(=O)c2ccccc2)O[C@H]1c1ccccn1.[Cl][Os+]` [Os-7a], for which the IC50 with A2780 cells [1] turned out to be 13.8 µM; with A2780 cells [3], 8.58 µM. Also, in the series on A2780 cells [1] (setting [10]), the “A2780 MTT Max Inhibition” value is listed as more than 90%. For the same compound, in series [2], the “Fibroblast MTT Max Inhibition” value is reported as 65.18%. Besides, the “A2780 SRB Max Inhibition” value with A2780 cells [3] is more than 90%. Besides, in series [4], the “Fibroblast SRB Max Inhibition” value was 49.00%. In addition, in [5], the logD was determined as 2.15. Also, the MIC in [6] was 5 µM; in series [7] (24 h) it was 10 µM; in series [8] (setting [11]), 5 µM; in series [8] (setting [12]), 5 µM; in series [8] (setting [13]) it was 10 µM; in series [9] (setting [14]) it was 10 µM. For the same compound, the MIC came to 10 µM in [9] (setting [15]); 5 µM in [9] (setting [16]); 5 µM in series [9] (setting [17]); 5 µM in [9] (setting [18]); 5 µM in series [9] (setting [19]).

Regarding `Cc1c(C)c(C)[c-](C)c1C.F[P-](F)(F)(F)(F)F.N[C@@H]1[C@@H](OCc2ccccc2)[C@H](OCc2ccccc2)[C@@H](COCc2ccccc2)O[C@H]1c1ccccn1.[Cl][Ir+2]` [Ir-3a], the “A2780 MTT Max Inhibition” value with A2780 cells [1] (setting [10]) was 82.71%. Besides, the IC50 in the series on A2780 cells [3] was 1.69 µM; in [4] (read-out: Fibroblast SRB IC50) it was 14.1 µM. Moreover, the “A2780 SRB Max Inhibition” value in the series with A2780 cells [3] was more than 90%. This compound also yielded a logD in series [5] of 3.18. Besides, the MIC is 20 µM in series [6]; 20 µM in series [7] (24 h); 10 µM in series [8] (setting [11]); 10 µM in series [8] (setting [12]); 10 µM in series [8] (setting [13]); 10 µM in [9] (setting [14]). In addition, the MIC in series [9] (setting [15]) worked out at 20 µM; in series [9] (setting [16]) it was 5 µM; in [9] (setting [17]), 10 µM; in series [9] (setting [18]) it was 10 µM; in series [9] (setting [19]), 10 µM.

With `Cc1ccc(C(C)C)cc1.F[P-](F)(F)(F)(F)F.N[C@@H]1[C@@H](OC(=O)c2ccccc2)[C@H](OC(=O)c2ccccc2)[C@@H](COC(=O)c2ccccc2)O[C@H]1c1ccccn1.[Cl][Ru+]` [Ru-7a], the IC50 came out at 9.15 µM in the series with A2780 cells [1] and 4.11 µM with A2780 cells [3]. Besides, the “A2780 MTT Max Inhibition” value with A2780 cells [1] (setting [10]) is reported as more than 90%. Besides, the “Fibroblast MTT Max Inhibition” value in series [2] turned out to be 65.18%. Moreover, the “A2780 SRB Max Inhibition” value in the series with A2780 cells [3] is listed as more than 90%. Besides, the “Fibroblast SRB Max Inhibition” value in series [4] is listed as 56.31%. In [5], the logD turned out to be 1.15. Moreover, the MIC in series [6], in series [7] (24 h), in series [8] (setting [11]), in series [8] (setting [12]), in series [8] (setting [13]) and in series [9] (setting [14]) was 5 µM each time. For the same compound, the MIC in [9] (setting [15]), in series [9] (setting [16]), in series [9] (setting [17]), in [9] (setting [18]) and in series [9] (setting [19]) was 5 µM in each case.

As for `Cc1c(C)c(C)[c-](C)c1C.F[P-](F)(F)(F)(F)F.N[C@@H]1[C@@H](OC(=O)c2ccccc2)[C@H](OC(=O)c2ccccc2)[C@@H](COC(=O)c2ccccc2)O[C@H]1c1ccccn1.[Cl][Rh+2]` [Rh-7a], in the series with A2780 cells [1] (setting [10]), the “A2780 MTT Max Inhibition” value stood at 35.97%. Moreover, the “Fibroblast MTT Max Inhibition” value in [2] is given as 27.02%. The compound further came in with an IC50 in the series on A2780 cells [3] of 18.2 µM. In addition, the “A2780 SRB Max Inhibition” value with A2780 cells [3] is more than 90%. Further, the “Fibroblast SRB Max Inhibition” value in series [4] is 32.56%. For the same compound, in series [5], the log distribution coefficient (logD) turned out to be 1.20. Further, the MIC in [6], in [7] (24 h), in series [8] (setting [11]), in series [8] (setting [12]), in [8] (setting [13]) and in [9] (setting [14]) was more than 40 µM throughout. In addition, the MIC in [9] (setting [15]), in series [9] (setting [16]), in series [9] (setting [17]), in series [9] (setting [18]) and in series [9] (setting [19]) was more than 40 µM in each case.

By IC50 is commonly meant the concentration needed to halve the response being measured. As usually defined, the logD is lipophilicity at a set pH, counting ionised and neutral species. Broadly, the MIC is the lowest concentration found to suppress growth. What is called inhibition is the drop in the measured response relative to a control, in per cent.
